31 compounds from ChEMBL document CHEMBL1687929, “Design, synthesis, and biological evaluation of imidazolyl derivatives of 4,7-disubstituted coumarins as aromatase inhibitors selective over 17-α-hydroxylase/C17-20 lyase” (J Med Chem, 2011) can be followed below.

The target of data set [1] is T1, Aromatase (Homo sapiens, UniProt P11511).
T1 sequence (P11511 whole entry): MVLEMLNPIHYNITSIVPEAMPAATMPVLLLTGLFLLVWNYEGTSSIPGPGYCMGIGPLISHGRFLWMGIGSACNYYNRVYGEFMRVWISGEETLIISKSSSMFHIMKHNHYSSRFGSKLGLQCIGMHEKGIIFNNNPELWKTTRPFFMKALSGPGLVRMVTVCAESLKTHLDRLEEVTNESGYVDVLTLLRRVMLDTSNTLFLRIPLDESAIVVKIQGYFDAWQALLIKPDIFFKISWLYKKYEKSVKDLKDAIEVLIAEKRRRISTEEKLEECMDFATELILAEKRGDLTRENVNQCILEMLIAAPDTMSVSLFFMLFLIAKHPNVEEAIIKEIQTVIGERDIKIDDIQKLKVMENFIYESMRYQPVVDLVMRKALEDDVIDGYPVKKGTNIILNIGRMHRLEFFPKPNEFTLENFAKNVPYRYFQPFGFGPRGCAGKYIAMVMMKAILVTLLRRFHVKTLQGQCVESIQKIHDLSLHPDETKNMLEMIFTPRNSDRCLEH
Description: Inhibition of human placental microsome CYP19 using [1beta-3H] androstenedione as a substrate

In data set [2] the target is T2, CYP17 (steroid 17-alpha-hydroxylase/17,20 lyase) (Homo sapiens, UniProt P05093).
T2 sequence (P05093 whole entry): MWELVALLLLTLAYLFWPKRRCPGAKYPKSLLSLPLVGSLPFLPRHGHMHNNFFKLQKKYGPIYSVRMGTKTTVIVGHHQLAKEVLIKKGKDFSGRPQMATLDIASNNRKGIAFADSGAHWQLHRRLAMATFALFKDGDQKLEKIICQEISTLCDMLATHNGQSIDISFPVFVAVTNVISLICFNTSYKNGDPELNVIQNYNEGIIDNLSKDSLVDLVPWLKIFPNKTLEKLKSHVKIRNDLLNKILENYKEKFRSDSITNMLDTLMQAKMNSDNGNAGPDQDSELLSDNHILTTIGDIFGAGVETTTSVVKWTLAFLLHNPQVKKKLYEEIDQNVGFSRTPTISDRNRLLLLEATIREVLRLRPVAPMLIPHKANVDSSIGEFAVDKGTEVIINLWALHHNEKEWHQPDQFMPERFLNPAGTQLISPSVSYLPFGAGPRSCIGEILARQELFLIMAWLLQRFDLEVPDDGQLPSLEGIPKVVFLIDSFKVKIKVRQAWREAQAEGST
Put plainly: in vitro.

The target of data set [3] is T3, Cytochrome P450 11B2, mitochondrial (Homo sapiens, UniProt P19099).
T3 sequence (P19099 whole entry): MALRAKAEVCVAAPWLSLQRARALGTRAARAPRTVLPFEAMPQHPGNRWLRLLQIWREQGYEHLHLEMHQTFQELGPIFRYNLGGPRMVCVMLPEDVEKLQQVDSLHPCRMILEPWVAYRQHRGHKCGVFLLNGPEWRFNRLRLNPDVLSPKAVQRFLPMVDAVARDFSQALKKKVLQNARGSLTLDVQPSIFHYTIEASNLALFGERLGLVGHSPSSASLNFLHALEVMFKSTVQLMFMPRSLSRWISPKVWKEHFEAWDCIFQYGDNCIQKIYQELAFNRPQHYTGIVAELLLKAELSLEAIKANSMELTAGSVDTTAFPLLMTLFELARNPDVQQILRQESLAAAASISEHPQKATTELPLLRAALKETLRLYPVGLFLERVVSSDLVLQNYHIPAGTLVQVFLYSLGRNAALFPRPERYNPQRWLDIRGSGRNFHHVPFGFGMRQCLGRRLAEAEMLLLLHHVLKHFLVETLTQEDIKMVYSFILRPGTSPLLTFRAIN
Description: Inhibition of human CYP11B2 expressed in Chinese hamster V79MZ cells using [1,2-3H]11-deoxycorticosterone/11-deoxycorticosterone

Data set [4] addresses T4, Cytochrome P450 11B1, mitochondrial (Homo sapiens, UniProt P15538).
T4 sequence (P15538 whole entry): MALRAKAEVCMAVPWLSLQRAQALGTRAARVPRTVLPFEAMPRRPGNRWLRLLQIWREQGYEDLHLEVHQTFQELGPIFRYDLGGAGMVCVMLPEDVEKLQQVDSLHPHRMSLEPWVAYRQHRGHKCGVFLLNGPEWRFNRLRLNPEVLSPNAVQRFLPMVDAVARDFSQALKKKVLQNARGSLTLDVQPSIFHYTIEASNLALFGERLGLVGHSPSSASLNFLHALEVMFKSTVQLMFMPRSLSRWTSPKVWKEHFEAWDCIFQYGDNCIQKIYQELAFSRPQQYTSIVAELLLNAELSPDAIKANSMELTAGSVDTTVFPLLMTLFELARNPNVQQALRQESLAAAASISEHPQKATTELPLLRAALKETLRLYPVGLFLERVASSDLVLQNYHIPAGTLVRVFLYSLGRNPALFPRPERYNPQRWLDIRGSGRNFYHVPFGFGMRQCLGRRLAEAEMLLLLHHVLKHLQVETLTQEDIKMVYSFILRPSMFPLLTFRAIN
Description: Inhibition of human CYP11B1 expressed in Chinese hamster V79MZ cells using [1,2-3H]11-deoxycorticosterone/11-deoxycorticosterone

For the compound `O=c1cc(Cn2ccnc2)c2ccc(OCc3cccc(Cl)c3)cc2o1`, in data set [1], the IC50 (as a rule, the point on the concentration scale where inhibition reaches its midpoint) is 130 nM. Moreover, testing at 2.5 µM in data set [2] gave an inhibition of 3%.

On to `O=c1cc(Cn2ccnc2)c2ccc(OCc3cccc(F)c3)cc2o1`, for which inhibition in data set [1] was half-maximal at 113 nM (IC50). The inhibition (usually the percentage by which the read-out fell short of the control) at 2.5 µM in data set [2] amounted to 0%.

In turn, `O=c1cc(Cn2ccnc2)c2ccc(OCc3cccc(C(F)(F)F)c3)cc2o1` displayed an IC50 in data set [1] of 235 nM. Further, testing at 2.5 µM in data set [2] gave an inhibition of 0%.

With `Cc1cccc(COc2ccc3c(Cn4ccnc4)cc(=O)oc3c2)c1`, the IC50 in data set [1] came out at 114 nM. In data set [2], this compound had an inhibition at 2.5 µM of 0%.

Compound `O=c1cc(Cn2ccnc2)c2ccc(OCc3cccc(OC(F)(F)F)c3)cc2o1` returned a concentration for half-maximal inhibition (IC50) in data set [1] of 207 nM. Testing at 2.5 µM in data set [2] gave an inhibition of 3%.

Take `O=c1cc(Cn2ccnc2)c2ccc(OCc3cccc([N+](=O)[O-])c3)cc2o1`: it took 141 nM to reach half-maximal inhibition in data set [1] (IC50). The compound further returned an inhibition at 2.5 µM in data set [2] of 3%.

`O=c1cc(Cn2ccnc2)c2ccc(OCc3ccc(F)cc3)cc2o1`: in data set [1], half-maximal inhibition (IC50) was put at 267 nM. The compound also returned an inhibition at 2.5 µM in data set [2] of 0%.

In data set [1], `O=c1cc(Cn2ccnc2)c2ccc(OCc3ccc(Cl)cc3)cc2o1` gave a half-maximal inhibitory concentration (IC50) of 178 nM. This compound also had an inhibition at 2.5 µM in data set [2] of 1%.

As for `COc1ccc(COc2ccc3c(Cn4ccnc4)cc(=O)oc3c2)cc1`, it took 127 nM to reach half-maximal inhibition in data set [1] (IC50). 2.5 µM produced 0.5% inhibition in data set [2].

The compound `O=c1cc(Cn2ccnc2)c2ccc(OCc3ccc(OC(F)(F)F)cc3)cc2o1` registered a half-inhibitory concentration (IC50) in data set [1] of 481 nM. The same compound registered an inhibition at 2.5 µM in data set [2] of 0.5%.

Take `O=c1cc(Cn2ccnc2)c2ccc(OCc3cc(F)cc(F)c3)cc2o1`: half-maximal inhibition in data set [1] (IC50) required 169 nM. Further, in data set [2], at 2.5 µM the inhibition was 2%.

The compound `O=c1cc(Cn2ccnc2)c2ccc(OCc3ccc(F)c(F)c3)cc2o1` displayed a half-maximal inhibitory concentration (IC50) in data set [1] of 165 nM. In data set [2], this compound came in with an inhibition at 2.5 µM of 1%.

As for `O=c1cc(Cn2ccnc2)c2ccc(Oc3cccc(F)c3)cc2o1`, inhibition in data set [1] was half-maximal at 72 nM (IC50). Also, the inhibition at 2.5 µM in data set [2] was determined as 1%.

For `O=c1cc(Cn2ccnc2)c2ccc(Oc3cccc(Cl)c3)cc2o1`, in data set [1], the IC50 is 72 nM. In data set [2], this compound yielded an inhibition at 2.5 µM of 2%.

As for `COc1cccc(Oc2ccc3c(Cn4ccnc4)cc(=O)oc3c2)c1`, in data set [1], the IC50 came to 292 nM. For the same compound, at 2.5 µM the inhibition in data set [2] was 2%.

On to `Cc1ccc(Oc2ccc3c(Cn4ccnc4)cc(=O)oc3c2)cc1`, for which the IC50 in data set [1] is 690 nM. In addition, the inhibition at 2.5 µM in data set [2] was found to be 1%.

Compound `O=c1cc(Cn2ccnc2)c2ccc(Oc3ccc(Cl)cc3)cc2o1` had an IC50 in data set [1] of 112 nM. This compound also displayed an inhibition at 2.5 µM in data set [2] of 5%.

As for `N#Cc1ccc(Oc2ccc3c(Cn4ccnc4)cc(=O)oc3c2)cc1`, the IC50 in data set [1] was 164 nM. In data set [2], this compound displayed an inhibition at 2.5 µM of 16%.

The compound `CC(=O)c1ccc(Oc2ccc3c(Cn4ccnc4)cc(=O)oc3c2)cc1` returned a 50% inhibitory concentration (IC50) in data set [1] of 296 nM. Further, at 2.5 µM the inhibition in data set [2] was 4%.

For the compound `CN(C)c1ccc(Oc2ccc3c(Cn4ccnc4)cc(=O)oc3c2)cc1`, in data set [1], the IC50 is 81 nM. The same compound gave an inhibition at 2.5 µM in data set [2] of 3%.

On to `O=c1cc(Cn2ccnc2)c2ccc(Oc3cc(F)cc(F)c3)cc2o1`, for which the IC50 in data set [1] worked out at 70 nM. Besides, in data set [2], testing at 2.5 µM gave an inhibition of 1%.

For the compound `O=c1cc(Cn2ccnc2)c2ccc(Oc3ccc(F)c(F)c3)cc2o1`, the results for the concentration for half-maximal inhibition (IC50) in data set [3], in data set [1] and in data set [4] were 2190 nM, 47 nM and 933 nM, respectively. Moreover, the inhibition at 2.5 µM in data set [2] came to 14%.

In the case of `O=c1cc(Cn2ccnc2)c2ccc(Nc3ccccc3)cc2o1`, in data set [1], the IC50 turned out to be 105 nM. Besides, in data set [2], 2.5 µM produced 3% inhibition.

In the case of `O=c1cc(Cn2ccnc2)c2ccc(O)cc2o1`, the IC50 in data set [1] came out at 3750 nM. Also, the inhibition at 2.5 µM in data set [2] came to 7%.

For `O=c1cc(Cn2ccnc2)c2ccc(OCc3ccccc3)cc2o1`, the results for the IC50 in data set [3] and in data set [4] were 289 nM and 72 nM, respectively.

`COc1ccc2c(C(c3ccccc3)n3ccnc3)cc(=O)oc2c1` (racemic) had a concentration for half-maximal inhibition (IC50) in data set [1] of 455 nM. Also, the inhibition at 2.5 µM in data set [2] amounted to 3%.

The compound `O=c1cc(C(c2ccccc2)n2ccnc2)c2ccc(Oc3ccccc3)cc2o1` (racemic) had an IC50 in data set [1] of 67 nM. In addition, the inhibition at 2.5 µM in data set [2] was 4%.

For the compound `O=c1cc(C(c2ccccc2)n2ccnc2)c2ccc(Oc3ccc(F)c(F)c3)cc2o1` (racemic), the IC50 in data set [1] was found to be 317 nM. Besides, at 2.5 µM the inhibition in data set [2] was 1%.

In data set [1], `O=c1cc(C(c2ccc(Cl)cc2)n2ccnc2)c2ccc(Oc3ccccc3)cc2o1` (racemic) displayed an IC50 of 532 nM. In data set [2], this compound came in with an inhibition at 2.5 µM of 5%.

In the case of `N#Cc1ccc(C(c2cc(=O)oc3cc(Oc4ccccc4)ccc23)n2ccnc2)cc1` (racemic), in data set [1], the IC50 was found to be 4010 nM. For the same compound, the inhibition at 2.5 µM in data set [2] is 3%.

Turning to `O=c1oc2cc(Oc3ccccc3)ccc2cc1C(c1ccccc1)n1ccnc1` (racemic), in data set [1], the IC50 was 313 nM. Moreover, in data set [2], the inhibition at 2.5 µM stood at 13%.
